In test [1] the test system is MiaPaca-2 (expressing KRAS G12C mutant). Briefly: Proliferation Assay (Cell Viability Assay). The test is classed as cell-based. The settings on record: Homo sapiens, MIA PaCa-2; read-out: Proliferation in MiaPaca-2: IC50. A digest of the protocol: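 MiaPaca-2 cells (KRAS G12C) were grown in DMEM-high glucose with 10% FBS, seeded at 2000–5000 cells/well and cultured overnight. Compounds were added at 10 μM final, or as serial dilutions for IC50, in 0.3% DMSO/10% FBS for 2–4 days at 37 °C, 5% CO2. Viability was measured with CellTiter 96 Aqueous One and % inhibition calculated.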

A further test concerns Erk1/2 phosphorylation. Briefly: Erk1/2 Phosphorylation Assay (western blot), Panc-1. As to conditions: at 10 μM, * = activation. The format is cell-based, human. A digest of the protocol: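 KRas G12D Panc-1 cells were treated 6 h at 37° C with compound at 10 μM or serial dilutions for IC50 (0.3% DMSO). In method 1, cells were serum-starved overnight (0.5% FBS) and then given 1.5 ng/ml EGF for 15 min. In method 2, cells stayed in 10% FBS without stimulation. Lysate phospho-Erk1/2 (Thr202/Tyr204) was read by western blot.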

21 compounds from US12459951B2, “Compounds that interact with RAS superfamily proteins for treatment of cancers, inflammatory diseases, rasopathies, and fibrotic disease” (SHY Therapeutics, LLC, priority 2022, dated 2025) can be followed below.

pIC50: −log10 of the molar value.

On to `COCCCNC(=O)c1c(-c2ccn(C)n2)cn2nc(-c3nccn3C)nc(N[C@H]3CC[C@H](OC)C3)c12` (racemic) [Compound 184, rac 4-(((1S,3S)-3-methoxycyclo-pentyl)amino)-N-(3-methoxypropyl)-2-(1-methyl-1H-imidazol-2-yl)-6-(1-methyl-1H-pyrazol-3-yl)pyrrolo[2,1-f][1,2,4]triazine-5-carboxamide], for which the pIC50 in test [1] was less than 6.00. In addition, the “% inh of Erk1/2 phosphorylation in Panc-1” value (shortened to “% inh”) in the test on Erk1/2 phosphorylation was “A* (1-25% activation)”.
Consider `Cc1c(-c2ccn(C)n2)cn2nc(-c3nccn3C)nc(Nc3cc(OCCNC(=O)CCCC[C@H]4SC[C@H]5NC(=O)N[C@H]54)ccn3)c12` [Compound 186, N-(2-((2-((5-Methyl-2-(1-methyl-1H-imidazol-2-yl)-6-(1-methyl-1H-pyrazol-3-yl)pyrrolo[2,1-f][1,2,4]triazin-4-yl)amino)pyridin-4-yl)oxy)ethyl)-5-((3aR,4R,6aS)-2-oxohexahydro-1H-thieno[3,4-d]imidazol-4-yl)pentanamide], for which, in test [1], the pIC50 was less than 6.00. Moreover, the “% inh” value in the test with Erk1/2 phosphorylation was “A* (1-25% activation)”.
As to `CO[C@@H]1C[C@H]1Nc1nc(-c2nccn2C)nn2cc(-c3cccnc3)c(-c3ccccc3)c12` (racemic) [Compound 190, N-((1R,2R)-2-Methoxycyclopropyl)-2-(1-methyl-1H-imidazol-2-yl)-5-phenyl-6-(pyridin-3-yl)pyrrolo[2,1-f][1,2,4]triazin-4-amine], in test [1], the pIC50 is less than 6.00. In the test with Erk1/2 phosphorylation, the “% inh” value is “D* (85-100% activation)”.
Consider `COCCNc1nc(-c2nccn2C)nn2cc(-c3cccnc3)c(-c3ccccc3)c12` [Compound 195, N-(2-Methoxyethyl)-2-(1-methyl-1H-imidazol-2-yl)-5-phenyl-6-(pyridin-3-yl)pyrrolo[2,1-f][1,2,4]triazin-4-amine], for which the pIC50 in test [1] is less than 6.00. Besides, the “% inh” value with Erk1/2 phosphorylation was “B* (26-49% activation)”.
For the compound `CO[C@H]1CC[C@H](Nc2nc(-c3nccn3C)nn3cc(-c4ccncc4)c(-c4ccccc4)c23)C1` (racemic) [Compound 201, rac N-((1S,3S)-3-Methoxycyclopentyl)-2-(1-methyl-1H-imidazol-2-yl)-5-phenyl-6-(pyridin-4-yl)pyrrolo[2,1-f][1,2,4]triazin-4-amine], the pIC50 in test [1] was less than 6.00. Further, the “% inh” value with Erk1/2 phosphorylation is reported as “D* (85-100% activation)”.
As for `COc1ccnc(Nc2nc(-c3nccn3C)nn3cc(-c4ccn(CCNC(=O)CCCC[C@H]5SC[C@H]6NC(=O)N[C@H]65)n4)c(C)c23)c1` [Compound 215, N-(2-(3-(4-((4-methoxypyridin-2-yl)amino)-5-methyl-2-(1-methyl-1H-imidazol-2-yl)pyrrolo[2,1-f][1,2,4]triazin-6-yl)-1H-pyrazol-1-yl)ethyl)-5-((3aR,4R,6aS)-2-oxohexahydro-1H-thieno[3,4-d]imidazol-4-yl)pentanamide], the pIC50 in test [1] was less than 6.00. Also, the “% inh” value in the test with Erk1/2 phosphorylation is recorded as “A* (1-25% activation)”.
On to `Cc1c(-c2ccn(C)n2)cn2nc(-c3nccn3C)nc(Nc3ccc(OC(F)F)cn3)c12` [Compound 231, N-(5-(Difluorometh-oxy)pyridin-2-yl)-5-methyl-2-(1-methyl-1H-imidazol-2-yl)-6-(1-methyl-1H-pyrazol-3-yl)pyrrolo[2,1-f][1,2,4]triazin-4-amine], for which the pIC50 in test [1] was more than 6.82. Moreover, in the test with Erk1/2 phosphorylation, the “% inh” value is “D* (85-100% activation)”.
Taken in the same sequence, the figures for `Cc1c(-c2ccn(C)n2)cn2nc(-c3nccn3C)nc(N)c12` [Compound 211, 5-Methyl-2-(1-methyl-1H-imidazol-2-yl)-6-(1-methyl-1H-pyrazol-3-yl)pyrrolo[2,1-f][1,2,4]triazin-4-amine] were less than 6.00 and “A* (1-25% activation)”.
In the case of `COc1cccc(-c2cn3nc(-c4nccn4C)nc(O)c3c2C)c1Cl` [Compound 15, 6-(2-Chloro-3-methoxyphenyl)-5-methyl-2-(1-methyl-1H-imidazol-2-yl)pyrrolo[2,1-f][1,2,4]triazin-4-ol], the pIC50 in test [1] is less than 6.00. Also, the “% inh” value in the test with Erk1/2 phosphorylation is listed as 0 (0% inhibition).
Consider `CO[C@H]1C[C@H](Nc2nc(-c3nccn3C)nn3cc(-c4ccc(OCCN)cc4)c(-c4ccccc4)c23)C1.Cl` [Compound 208, 6-(4-(2-Aminoethoxy)phenyl)-N-((1r,3r)-3-methoxycyclobutyl)-2-(1-methyl-1H-imidazol-2-yl)-5-phenylpyrrolo[2,1-f][1,2,4]triazin-4-amine hydrochloride salt], for which the pIC50 in test [1] is less than 6.00. Further, in the test on Erk1/2 phosphorylation, the “% inh” value is “C* (46-84% activation)”.
As to `CO[C@H]1C[C@H](Nc2nc(-c3nccn3C)nn3cc(-c4cccc(OCCN)c4)c(-c4ccccc4)c23)C1` [Compound 205, 6-(3-(2-Aminoethoxy)phenyl)-N-((1r,3r)-3-methoxycyclobutyl)-2-(1-methyl-1H-imidazol-2-yl)-5-phenylpyrrolo[2,1-f][1,2,4]triazin-4-amine], the pIC50 in test [1] is less than 6.00. In the test with Erk1/2 phosphorylation, the “% inh” value is “D* (85-100% activation)”.
As for `COC1CCCN(c2nc(-c3ccccn3)nn3cc(-c4ccn(C(C)C)n4)c(C)c23)C1` (racemic) [Compound 12, rac 6-(1-Isopropyl-1H-pyrazol-3-yl)-4-(3-methoxypiperidin-1-yl)-5-methyl-2-(pyridin-2-yl)pyrrolo[2,1-f][1,2,4]triazine], in test [1], the pIC50 is less than 6.00. The “% inh” value with Erk1/2 phosphorylation is listed as 0 (0% inhibition).
For the compound `COc1cc(Nc2nc(-c3ccccn3)nn3cc(-c4ccn(C(C)C)n4)c(C)c23)ncn1` [Compound 13, 6-(1-Isopropyl-1H-pyrazol-3-yl)-N-(6-methoxypyrimidin-4-yl)-5-methyl-2-(pyridin-2-yl)pyrrolo[2,1-f][1,2,4]triazin-4-amine], the pIC50 in test [1] is 6.30 to 6.82. In the test with Erk1/2 phosphorylation, the “% inh” value is 0 (0% inhibition).
On to `COc1ccnc(Nc2nc(-c3nccn3C)nn3cc(-c4cccnc4)c(-c4ccccc4)c23)c1` [Compound 196, N-(4-Methoxypyridin-2-yl)-2-(1-methyl-1H-imidazol-2-yl)-5-phenyl-6-(pyridin-3-yl)pyrrolo[2,1-f][1,2,4]triazin-4-amine], for which the pIC50 in test [1] is more than 6.82. Also, the “% inh” value with Erk1/2 phosphorylation was “D* (85-100% activation)”.
Turning to `CO[C@H]1C[C@H](Nc2nc(-c3nccn3C)nn3cc(-c4cccnc4)c(-c4ccccc4)c23)C1` [Compound 192, N-((1r,3r)-3-Methoxycyclobutyl)-2-(1-methyl-1H-imidazol-2-yl)-5-phenyl-6-(pyridin-3-yl)pyrrolo[2,1-f][1,2,4]triazin-4-amine], the pIC50 in test [1] is less than 6.00. Further, the “% inh” value with Erk1/2 phosphorylation is “D* (85-100% activation)”.
In the case of `CO[C@H]1C[C@H](Nc2nc(-c3nccn3C)nn3cc(-c4cccnc4)c(-c4cccnc4)c23)C1` [Compound 171, N-((1r,3r)-3-Methoxycyclobutyl)-2-(1-methyl-1H-imidazol-2-yl)-5,6-di(pyridin-3-yl)pyrrolo[2,1-f][1,2,4]triazin-4-amine], the pIC50 in test [1] is less than 6.00. Also, the “% inh” value in the test on Erk1/2 phosphorylation is “B (26-49% inhibition)”.
In the case of `COc1ccc(N(C)c2nc(-c3nccn3C)nn3cc(-c4ccn(C)n4)c(C)c23)nc1` [Compound 225, N-(5-Methoxypyridin-2-yl)-N,5-dimethyl-2-(1-methyl-1H-imidazol-2-yl)-6-(1-methyl-1H-pyrazol-3-yl)pyrrolo[2,1-f][1,2,4]triazin-4-amine], in test [1], the pIC50 was less than 6.00. In the test with Erk1/2 phosphorylation, the “% inh” value is on record as “B (26-49% inhibition)”.
As for `COc1ccnc(Nc2nc(-c3nccn3C)nn3cc(-c4ccn(C)n4)c(C(=O)NCC(F)(F)F)c23)c1` [Compound 174, 4-((4-Methoxypyridin-2-yl)amino)-2-(1-methyl-1H-imidazol-2-yl)-6-(1-methyl-1H-pyrazol-3-yl)-N-(2,2,2-trifluoro-ethyl)pyrrolo[2,1-f][1,2,4]triazine-5-carboxamide], the pIC50 in test [1] is 6.30 to 6.82. In addition, the “% inh” value with Erk1/2 phosphorylation is “D* (85-100% activation)”.
In the case of `CO[C@H]1C[C@@H](Nc2nc(-c3nccn3C)nn3cc(-c4cccnc4)c(-c4ccccc4)c23)C1` [Compound 191, N-((1s,3s)-3-Methoxycyclobutyl)-2-(1-methyl-1H-imidazol-2-yl)-5-phenyl-6-(pyridin-3-yl)pyrrolo[2,1-f][1,2,4]triazin-4-amine], the pIC50 in test [1] was less than 6.00. The “% inh” value in the test on Erk1/2 phosphorylation is reported as “D* (85-100% activation)”.
The matching figures for `COc1ccc(Nc2nc(-c3nccn3C)nn3cc(-c4ccn(C)n4)c(C)c23)nc1` [Compound 224, N-(5-Methoxypyridin-2-yl)-5-methyl-2-(1-methyl-1H-imidazol-2-yl)-6-(1-methyl-1H-pyrazol-3-yl)pyrrolo[2,1-f][1,2,4]triazin-4-amine]: more than 6.82 and “C* (46-84% activation)”.
Take `CO[C@H]1C[C@H](Nc2nc(-c3nccn3C)nn3cc(-c4ccccc4)c(-c4ccccc4)c23)C1` [Compound 203, N-((1r,3r)-3-Methoxycyclobutyl)-2-(1-methyl-1H-imidazol-2-yl)-5,6-diphenylpyrrolo[2,1-f][1,2,4]triazin-4-amine]: the pIC50 in test [1] was 6.00 to 6.29. In addition, in the test on Erk1/2 phosphorylation, the “% inh” value is reported as “D (85-100% inhibition)”.
